Reference: patent publication US12162890B2 (Novartis AG, priority 2015, dated 2024)

Target: HEK293 cells with stable expression of the GRIN1 gene and tetracycline-inducible expression of the GRIN2B gene (NMDA receptor, NR2B) (Homo sapiens, UniProt Q13224)
Assay: Fluo-8 Ca2+ flux assay: reversal of Ro 25-6981-mediated suppression of the Ca2+ response to co-agonist (glutamate/glycine); note: test concentration or dose not given here
Assay type: cell-based
Conditions: reversal of the Ro 25-6981 suppression of the Ca2+ response to co-agonist (glutamate/glycine)

Sequence of HEK293 cells with stable expression of the GRIN1 gene and tetracycline-inducible expression of the GRIN2B gene (NMDA receptor, NR2B) (Q13224 27-1484, other chains not shown): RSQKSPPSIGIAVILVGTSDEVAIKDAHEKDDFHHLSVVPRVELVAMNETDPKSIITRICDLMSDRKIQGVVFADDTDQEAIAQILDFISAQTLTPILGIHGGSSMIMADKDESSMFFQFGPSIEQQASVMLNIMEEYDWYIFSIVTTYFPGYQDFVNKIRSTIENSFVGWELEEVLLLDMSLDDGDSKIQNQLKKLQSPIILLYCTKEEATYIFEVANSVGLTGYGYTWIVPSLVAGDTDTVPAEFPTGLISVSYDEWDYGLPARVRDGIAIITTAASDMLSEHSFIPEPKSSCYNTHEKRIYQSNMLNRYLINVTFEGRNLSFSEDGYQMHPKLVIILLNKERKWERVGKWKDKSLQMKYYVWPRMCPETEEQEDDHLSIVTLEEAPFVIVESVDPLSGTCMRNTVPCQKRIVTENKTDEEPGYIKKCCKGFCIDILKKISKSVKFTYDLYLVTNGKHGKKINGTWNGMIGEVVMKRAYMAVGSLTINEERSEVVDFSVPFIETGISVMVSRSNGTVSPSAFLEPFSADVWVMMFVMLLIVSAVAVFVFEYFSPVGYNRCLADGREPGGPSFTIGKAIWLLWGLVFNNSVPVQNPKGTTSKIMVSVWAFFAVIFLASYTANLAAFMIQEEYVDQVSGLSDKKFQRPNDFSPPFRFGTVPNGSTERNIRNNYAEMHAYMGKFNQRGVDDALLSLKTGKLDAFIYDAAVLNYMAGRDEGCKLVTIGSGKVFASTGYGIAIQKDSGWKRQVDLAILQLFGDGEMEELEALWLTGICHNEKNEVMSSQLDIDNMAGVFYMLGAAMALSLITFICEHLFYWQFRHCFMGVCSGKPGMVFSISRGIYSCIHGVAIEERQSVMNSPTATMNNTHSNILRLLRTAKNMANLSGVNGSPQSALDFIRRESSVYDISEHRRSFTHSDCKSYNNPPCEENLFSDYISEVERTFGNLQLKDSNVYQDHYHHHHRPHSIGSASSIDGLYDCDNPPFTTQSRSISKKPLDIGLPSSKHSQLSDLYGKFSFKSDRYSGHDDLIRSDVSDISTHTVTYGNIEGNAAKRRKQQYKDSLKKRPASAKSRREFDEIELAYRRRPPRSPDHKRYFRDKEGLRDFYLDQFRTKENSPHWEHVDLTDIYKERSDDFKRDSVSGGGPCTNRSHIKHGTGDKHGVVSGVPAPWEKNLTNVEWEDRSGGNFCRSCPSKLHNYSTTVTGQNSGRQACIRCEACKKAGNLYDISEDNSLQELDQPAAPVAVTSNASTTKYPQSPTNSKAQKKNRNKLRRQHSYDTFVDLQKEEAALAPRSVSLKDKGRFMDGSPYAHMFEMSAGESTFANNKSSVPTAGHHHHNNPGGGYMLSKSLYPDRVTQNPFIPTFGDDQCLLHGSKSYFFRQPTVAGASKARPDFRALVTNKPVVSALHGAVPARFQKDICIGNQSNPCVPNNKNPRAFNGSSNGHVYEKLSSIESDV

Row | SMILES | Response Recovered (%)
1 | Cc1cc(-c2csc3ccn(CC(=O)N4CC(F)(CF)C4)c(=O)c23)cnc1F [Example 89, 5-(2-(3-fluoro-3-(fluoromethyl)azetidin-1-yl)-2-oxoethyl)-3-(6-fluoro-5-methylpyridin-3-yl)thieno[3,2-c]pyridin-4(5H)-one] | 16
2 | O=C(Cn1ccc2[nH]cc(-c3ccc(Cl)c(F)c3)c2c1=O)N1CCC(F)C1 (centres unmarked) [Example 204, 3-(4-chloro-3-fluorophenyl)-5-(2-(3-fluoropyrrolidin-1-yl)-2-oxoethyl)-1H-pyrrolo[3,2-c]pyridin-4(5H)-one] | 47
3 | CC1(F)CN(C(=O)Cn2ccc3scc(-c4ccc(F)c(C(F)(F)F)c4)c3c2=O)C1 [Example 43, 3-(4-fluoro-3-(trifluoromethyl)phen-yl)-5-(2-(3-fluoro-3-methylazetidin-1-yl)-2-oxoethyl)thieno[3,2-c]pyridin-4(5H)-one] | 160
4 | O=C(Cn1ccn2c(C3CC3)nc(-c3ccc(Cl)c(Cl)c3)c2c1=O)N1CCC(F)C1 (centres unmarked) [Example 433, 3-cyclopropyl-1-(3,4-dichlorophenyl)-7-(2-(3-fluoropyrrolidin-1-yl)-2-oxoethyl)imidazo[1,5-a]pyrazin-8(7H)-one] | 68
5 | O=C(Cn1ccc2scc(-c3ccc(Cl)s3)c2c1=O)N1CCC(F)C1 (centres unmarked) [Example 31, 3-(5-chlorothiophen-2-yl)-5-(2-(3-fluoropyrrolidin-1-yl)-2-oxoethyl)thieno[3,2-c]pyridin-4(5H)-one] | 34
6 | CCC1(F)CN(C(=O)Cn2ccn3ccc(-c4cnc(Cl)c(C)c4)c3c2=O)C1 [Example 410, 8-(6-chloro-5-methylpyridin-3-yl)-2-(2-(3-ethyl-3-fluoroazetidin-1-yl)-2-oxoethyl)pyrrolo[1,2-a]pyrazin-1(2H)-one] | 34
7 | O=C(Cn1ccn2ccc(-c3ccc(Cl)c(Cl)c3)c2c1=O)N1CCCC1 [Example 394, 8-(3,4-dichlorophenyl)-2-(2-oxo-2-(pyrrolidin-1-yl)ethyl)pyrrolo[1,2-a]pyrazin-1(2H)-one] | 62
8 | O=C(Cn1ccc2scc(-c3ccc(Cl)c(C(F)(F)F)c3)c2c1=O)N1CC(F)C1 [Example 34, 3-(4-chloro-3-(trifluoromethyl)phen-yl)-5-(2-(3-fluoroazetidin-1-yl)-2-oxoethyl)thieno[3,2-c]pyridin-4(5H)-one] | 79
9 | CCn1cc(-c2ccc(F)c(C(F)(F)F)c2)c2c(=O)n(CC(=O)N3CCC(F)C3)cnc21 (centres unmarked) [Example 184] | 66
10 | O=C(Cn1ccn2ccc(-c3ccc(Cl)c(Cl)c3)c2c1=O)N1CC(F)(CF)C1 [Example 403, 8-(3,4-dichlorophenyl)-2-(2-(3-fluoro-3-(fluoromethyl)azetidin-1-yl)-2-oxoethyl)pyrrolo[1,2-a]pyrazin-1(2H)-one] | 130
11 | O=C(Cn1ccn2c(Br)cc(-c3ccc(F)c(C(F)(F)F)c3)c2c1=O)N1CCC(F)C1 (centres unmarked) [Example 423, 6-bromo-8-(4-fluoro-3-(trifluoromethyl)phenyl)-2-(2-(3-fluoropyrrolidin-1-yl)-2-oxoethyl)pyrrolo[1,2-a]pyrazin-1(2H)-one] | 72
12 | O=C(Cn1ccc2cccc(-c3ccc(Cl)c(F)c3)c2c1=O)N1CC(F)(F)C1 [Example 305, 8-(4-chloro-3-fluorophenyl)-2-(2-(3,3-difluoroazetidin-1-yl)-2-oxoethyl)isoquinolin-1(2H)-one] | 23
13 | COCn1cc(-c2ccc(F)c(C(F)(F)F)c2)c2c(=O)n(CC(=O)N3CCC(F)C3)ccc21 (centres unmarked) [Example 238, 3-(4-fluoro-3-(trifluoromethyl)phenyl)-5-(2-(3-fluoropyrrolidin-1-yl)-2-oxoethyl)-1-(methoxymethyl)-1H-pyrrolo[3,2-c]pyridin-4(5H)-one] | 65
14 | O=C(Cn1cc(/C=N/O)c2scc(-c3ccc(F)c(C(F)(F)F)c3)c2c1=O)N1CCC(F)C1 (centres unmarked) [Example 134, (E)-3-(4-fluoro-3-(trifluoromethyl)phenyl)-5-(2-(3-fluoropyrrolidin-1-yl)-2-oxoethyl)-4-oxo-4,5-dihydrothieno[3,2-c]pyridine-7-carbaldehyde oxime] | 130
15 | O=C(Cn1ccc2scc(-c3ccc(F)c(Cl)c3)c2c1=O)NCC(F)(F)F [Example 56, 2-(3-(3-chloro-4-fluorophenyl)-4-oxothieno[3,2-c]pyridin-5(4H)-yl)-N-(2,2,2-trifluoroethyl)aceta-mide] | 7.3
16 | O=C(Cn1cnc2c(c(-c3ccc(Cl)c(C(F)(F)F)c3)cn2CCF)c1=O)N1CCCC1 [Example 149, 5-(4-chloro-3-(trifluoromethyl)phenyl)-7-(2-fluoroethyl)-3-(2-oxo-2-(pyrrolidin-1-yl)ethyl)-3H-pyrrolo[2,3-d]pyrimidin-4(7H)-one] | 64

Row | SMILES | Response Recovered (%)
17 | O=C(Cn1ccc2scc(-c3cnc(F)c(Cl)c3)c2c1=O)N1CCC(F)C1 (centres unmarked) [Example 37, 3-(5-chloro-6-fluoropyridin-3-yl)-5-(2-(3-fluoropyrrolidin-1-yl)-2-oxoethyl)thieno[3,2-c]pyridin-4(5H)-one] | 22
18 | O=C(Cn1ccc2scc(-c3ccc(Cl)c(C(F)(F)F)c3)c2c1=O)N1CCCC1 [Example 1, 3-(4-chloro-3-(trifluoromethyl)phenyl)-5-(2-oxo-2-(pyrrolidin-1-yl)ethyl)thieno[3,2-c]pyridin-4(5H)-one] | 83
19 | O=C(Cn1ccn2ccc(-c3ccc(F)c(Cl)c3)c2c1=O)N1CCCC1 [Example 392, 8-(3-chloro-4-fluorophenyl)-2-(2-oxo-2-(pyrrolidin-1-yl)ethyl)pyrrolo[1,2-a]pyrazin-1(2H)-one] | 118
20 | O=C(Cn1ccc2scc(-c3ccc(F)c(Cl)c3)c2c1=O)N1CC(F)(CF)C1 [Example 81, 3-(3-chloro-4-fluorophenyl)-5-(2-(3-fluoro-3-(fluoromethyl)azetidin-1-yl)-2-oxoethyl)thieno[3,2-c]pyridin-4(5H)-one] | 140
21 | CC1(NC(=O)OC(C)(C)C)CN(C(=O)Cn2ccc3scc(-c4ccc(F)c(Cl)c4)c3c2=O)C1 [Example 74, tert-butyl (1-(2-(3-(3-chloro-4-fluorophenyl)-4-oxothieno[3,2-c]pyridin-5(4H)-yl)acetyl)-3-methylazetidin-3-yl)carbamate] | 4.7
22 | O=C(Cn1cnc2[nH]cc(-c3ccc(Cl)c(C(F)(F)F)c3)c2c1=O)N1C[C@@H](F)[C@@H](F)C1 [Example 181] | 69
23 | Cn1cc(-c2ccc(Cl)cc2)c2c(=O)n(CC(=O)N3CCCC3C(F)(F)F)cnc21 (centres unmarked) [Example 153, 5-(4-chlorophenyl)-7-methyl-3-(2-oxo-2-(2-(trifluoromethyl)pyrrolidin-1-yl)ethyl)-3H-pyrrolo[2,3-d]pyrimidin-4(7H)-one] | 35
24 | Cc1cn(CC(=O)N2CCC(F)C2)c(=O)n2c(-c3ccc(Cl)c(Cl)c3)cnc12 (centres unmarked) [Example 453, 3-(3,4-dichlorophenyl)-6-(2-(3-fluoropyrrolidin-1-yl)-2-oxoethyl)-8-methylimidazo[1,2-c]pyrimidin-5(6H)-one] | 26
25 | CCOCc1cn(CC(=O)N2CCC(F)C2)c(=O)c2c(-c3ccc(F)c(C(F)(F)F)c3)csc12 (centres unmarked) [Example 127, 7-(ethoxymethyl)-3-(4-fluoro-3-(trifluoromethyl)phenyl)-5-(2-(3-fluoropyrrolidin-1-yl)-2-oxoethyl)thieno[3,2-c]pyridin-4(5H)-one] | 48
26 | O=C(Cn1ccc2scc(-c3ccc(Cl)c(Cl)c3)c2c1=O)N1CC(F)C1 [Example 33, 3-(3,4-dichlorophenyl)-5-(2-(3-fluoroazetidin-1-yl)-2-oxoethyl)thieno[3,2-c]pyridin-4(5H)-one] | 54
27 | O=C(Cn1cc(CN2CCCC2)c2scc(-c3ccc(F)c(C(F)(F)F)c3)c2c1=O)N1CCC(F)C1 (centres unmarked) [Example 112, 3-(4-fluoro-3-(trifluoromethyl)phenyl)-5-(2-(3-fluoropyrrolidin-1-yl)-2-oxoethyl)-7-(pyrrolidin-1-ylmethyl)thieno[3,2-c]pyridin-4(5H)-one] | 89
28 | O=C(Cn1ccc2c(c(-c3ccc(Cl)c(Cl)c3)cn2CC(F)(F)F)c1=O)N1CCC(F)C1 (centres unmarked) [Example 275, 3-(3,4-dichlorophenyl)-5-(2-(3-fluoropyrrolidin-1-yl)-2-oxoethyl)-1-(2,2,2-trifluoroethyl)-1H-pyrrolo[3,2-c]pyridin-4(5H)-one] | 100
29 | Cn1cc(-n2cc(-c3ccc(F)c(Cl)c3)c3c(=O)n(CC(=O)N4CCC(F)C4)ccc32)cn1 (centres unmarked) [Example 235, 3-(3-chloro-4-fluorophenyl)-5-(2-(3-fluoropyrrolidin-1-yl)-2-oxoethyl)-1-(1-methyl-1H-pyrazol-4-yl)-1H-pyrrolo[3,2-c]pyridin-4(5H)-one] | 40
30 | O=C(Cn1ccc2c(c(-c3ccc(F)c(C(F)(F)F)c3)cn2CCF)c1=O)N1CCC(F)C1 (centres unmarked) [Example 252, 3-(4-fluoro-3-(trifluoromethyl)phenyl)-1-(2-fluoroethyl)-5-(2-(3-fluoropyrrolidin-1-yl)-2-oxoethyl)-1H-pyrrolo[3,2-c]pyridin-4(5H)-one] | 96
31 | O=C(Cn1ccc2cccc(-c3ccc(Cl)c(Cl)c3)c2c1=O)N1CCCC1 [Example 308] | 78
32 | O=C(Cn1ccn2c(C3CC3)nc(-c3ccc(F)c(Cl)c3)c2c1=O)N1CCC(F)C1 (centres unmarked) [Example 432, 1-(3-chloro-4-fluorophenyl)-3-cyclopropyl-7-(2-(3-fluoropyrrolidin-1-yl)-2-oxoethyl)imidazo[1,5-a]pyrazin-8(7H)-one] | 19
